≈ marks a conversion by molar mass, not a printed value.
Legend:
Format in all cases: functional
Enterococcus faecalis = test: In vitro antibacterial activity against Enterococcus faecalis C6291 (E.f.1).
Staphylococcus aureus [1] = test: In vitro antibacterial activity against Staphylococcus aureus (S. a.) ATCC 29213.
[2] = system: Staphylococcus epidermidis; test: In vitro antibacterial activity against Staphylococcus epidermis (S.e.2) C2235.
[3] = system: Staphylococcus epidermidis; test: In vitro antibacterial activity against Staphylococcus epidermis (S.e.1) […].
Staphylococcus aureus [4] = test: In vitro antibacterial activity against methicillin-susceptible Staphylococcus aureus (MSSA) C2214.
Staphylococcus aureus [5] = test: In vitro antibacterial activity against methicillin-resistant Staphylococcus aureus (MRSA) C6068.
Enterococcus faecium [6] = test: In vitro antibacterial activity against vancomycin-resistant Enterococcus faecium C6487 (VRE).
Enterococcus faecium [7] = test: In vitro antibacterial activity against Enterococcus faecium C6301 (E.f.2).
Streptococcus pyogenes [8] = test: In vitro antibacterial activity against Streptococcus pyogenes C6003 (S.p.2).
Staphylococcus aureus [9] = test: In vitro antibacterial activity against ciprofloxacin-resistant Staphylococcus aureus (CRSA) C6043.
Streptococcus pyogenes [10] = test: In vitro antibacterial activity against Streptococcus pyogenes ATCC 8668 (S.p.1).

Row | Compound | MIC (Enterococcus faecalis) [µg/mL] | MIC (Staphylococcus aureus [1]) [µg/mL] | MIC [2] [µg/mL] | MIC [3] [µg/mL] | MIC (Staphylococcus aureus [4]) [µg/mL] | MIC (Staphylococcus aureus [5]) [µg/mL] | MIC (Enterococcus faecium [6]) [µg/mL] | MIC (Enterococcus faecium [7]) [µg/mL] | MIC (Streptococcus pyogenes [8]) [µg/mL] | MIC (Staphylococcus aureus [9]) [µg/mL] | MIC (Streptococcus pyogenes [10]) [µg/mL]
1 | CC(=O)NC[C@H]1CN(c2ccc(N3CCN(Cc4cc(-c5ccc(Cl)cc5)no4)CC3)c(F)c2)C(=O)O1 | > 32 | > 32 | 32 (≈ 60.6 µM) | 16 (≈ 30.3 µM) | 32 (≈ 60.6 µM) | 16 (≈ 30.3 µM) | 32 (≈ 60.6 µM) | 32 (≈ 60.6 µM) | 4 (≈ 7.58 µM) | > 32 | 4 (≈ 7.58 µM)
2 | COc1cc(C(=O)N2CCN(c3ccc(N4C[C@H](CNC(C)=O)OC4=O)cc3F)CC2)on1 | 2 (≈ 4.33 µM) | 4 (≈ 8.67 µM) | 0.5 (≈ 1.08 µM) | 0.5 (≈ 1.08 µM) | 4 (≈ 8.67 µM) | 2 (≈ 4.33 µM) | 2 (≈ 4.33 µM) | 2 (≈ 4.33 µM) | 0.5 (≈ 1.08 µM) | 4 (≈ 8.67 µM) | 0.5 (≈ 1.08 µM)
3 | COc1cc(CN2CCN(c3ccc(N4C[C@H](CNC(C)=O)OC4=O)cc3F)CC2)on1 | 8 (≈ 17.9 µM) | 8 (≈ 17.9 µM) | 4 (≈ 8.94 µM) | 2 (≈ 4.47 µM) | 8 (≈ 17.9 µM) | 4 (≈ 8.94 µM) | 4 (≈ 8.94 µM) | 4 (≈ 8.94 µM) | 1 (≈ 2.23 µM) | 8 (≈ 17.9 µM) | 1 (≈ 2.23 µM)
4 | CC(=O)NC[C@H]1CN(c2ccc(N3CCN(C(=O)c4cc(-c5cnsn5)no4)CC3)c(F)c2)C(=O)O1 | 2 (≈ 3.88 µM) | 4 (≈ 7.76 µM) | 1 (≈ 1.94 µM) | 1 (≈ 1.94 µM) | 4 (≈ 7.76 µM) | 1 (≈ 1.94 µM) | 1 (≈ 1.94 µM) | 2 (≈ 3.88 µM) | 0.5 (≈ 0.97 µM) | 2 (≈ 3.88 µM) | 0.5 (≈ 0.97 µM)
5 | CC(=O)NC[C@H]1CN(c2ccc(N3CCN(C(=O)c4cc(C(F)(F)F)no4)CC3)c(F)c2)C(=O)O1 | 4 (≈ 8.01 µM) | 4 (≈ 8.01 µM) | 2 (≈ 4 µM) | 2 (≈ 4 µM) | 4 (≈ 8.01 µM) | 2 (≈ 4 µM) | 4 (≈ 8.01 µM) | 4 (≈ 8.01 µM) | 1 (≈ 2 µM) | 4 (≈ 8.01 µM) | 1 (≈ 2 µM)
6 | CC(=O)NC[C@H]1CN(c2ccc(N3CCN(Cc4cc(-c5ccc(Oc6ccccc6)cc5)no4)CC3)c(F)c2)C(=O)O1 | 4 (≈ 6.83 µM) | 8 (≈ 13.7 µM) | 4 (≈ 6.83 µM) | 2 (≈ 3.42 µM) | 8 (≈ 13.7 µM) | 4 (≈ 6.83 µM) | 4 (≈ 6.83 µM) | 4 (≈ 6.83 µM) | 1 (≈ 1.71 µM) | 8 (≈ 13.7 µM) | 1 (≈ 1.71 µM)
7 | CC(=O)NC[C@H]1CN(c2ccc(N3CCN(C(=O)c4cc(O)no4)CC3)c(F)c2)C(=O)O1 | > 32 | > 32 | > 32 | > 32 | > 32 | – | – | > 32 | 16 (≈ 35.8 µM) | – | 16 (≈ 35.8 µM)
8 | CC(=O)NC[C@H]1CN(c2ccc(N3CCOCC3)c(F)c2)C(=O)O1 [LINEZOLID] | – | – | 1 (≈ 2.96 µM) | 1 (≈ 2.96 µM) | – | 1 (≈ 2.96 µM) | 2 (≈ 5.93 µM) | 1 (≈ 2.96 µM) | 0.5 (≈ 1.48 µM) | – | 0.5 (≈ 1.48 µM)
9 | CC(=O)NC[C@H]1CN(c2ccc(N3CCN(C(=O)c4cc(-c5nccs5)no4)CC3)c(F)c2)C(=O)O1 | 1 (≈ 1.94 µM) | 2 (≈ 3.89 µM) | 0.5 (≈ 0.972 µM) | 0.5 (≈ 0.972 µM) | 1 (≈ 1.94 µM) | 0.5 (≈ 0.972 µM) | 0.5 (≈ 0.972 µM) | 1 (≈ 1.94 µM) | 0.5 (≈ 0.972 µM) | 0.5 (≈ 0.972 µM) | 0.25 (≈ 0.486 µM)
10 | CC(=O)NC[C@H]1CN(c2ccc(N3CCN(C(=O)c4cccs4)CC3)c(F)c2)C(=O)O1 | 2 (≈ 4.48 µM) | 2 (≈ 4.48 µM) | 1 (≈ 2.24 µM) | 0.5 (≈ 1.12 µM) | 2 (≈ 4.48 µM) | 1 (≈ 2.24 µM) | 2 (≈ 4.48 µM) | 2 (≈ 4.48 µM) | 1 (≈ 2.24 µM) | 2 (≈ 4.48 µM) | 1 (≈ 2.24 µM)
11 | CC(=O)NC[C@H]1CN(c2ccc(N3CCN(C(=O)c4cc(OCCF)no4)CC3)c(F)c2)C(=O)O1 | 2 (≈ 4.05 µM) | 4 (≈ 8.11 µM) | 2 (≈ 4.05 µM) | 1 (≈ 2.03 µM) | 2 (≈ 4.05 µM) | 2 (≈ 4.05 µM) | 1 (≈ 2.03 µM) | 1 (≈ 2.03 µM) | 0.5 (≈ 1.01 µM) | 2 (≈ 4.05 µM) | 0.5 (≈ 1.01 µM)
12 | CN[C@H](CC(C)C)C(=O)N[C@H]1C(=O)N[C@@H](CC(N)=O)C(=O)N[C@H]2C(=O)N[C@H]3C(=O)N[C@H](C(=O)N[C@H](C(=O)O)c4cc(O)cc(O)c4-c4cc3ccc4O)[C@H](O)c3ccc(c(Cl)c3)Oc3cc2cc(c3O[C@@H]2O[C@H](CO)[C@@H](O)[C@H](O)[C@H]2O[C@H]2C[C@](C)(N)[C@H](O)[C@H](C)O2)Oc2ccc(cc2Cl)[C@H]1O [VANCOMYCIN] | 1 (≈ 0.69 µM) | – | – | 0.5 (≈ 0.345 µM) | – | – | > 32 | – | 0.25 (≈ 0.173 µM) | – | 0.25 (≈ 0.173 µM)
13 | CC(=O)NC[C@H]1CN(c2ccc(N3CCN(Cc4cc(/C=C/c5ccccc5)no4)CC3)c(F)c2)C(=O)O1 | 16 (≈ 30.8 µM) | > 32 | 16 (≈ 30.8 µM) | 2 (≈ 3.85 µM) | > 32 | 32 (≈ 61.6 µM) | 8 (≈ 15.4 µM) | 8 (≈ 15.4 µM) | 2 (≈ 3.85 µM) | – | 2 (≈ 3.85 µM)
